According to patent US20100062437A1, “PARALLEL PROFILLING OF SIGNALING PATHWAYS” (priority 2007, published 2010):

Tests used:
[1] = system: DLD-1 cells; assay: Degradation of long-lived proteins (proteolysis) in DLD-1 cells; assay type: cell-based, human; conditions: for effect on ouabain-induced increase in protein degradation: 20 mM NH4Cl and 100 μM leupeptine or 10 mM 3-methyladenine during the chase
Source text: The Na^+/K^+-ATPase is the common target of ouabain, digoxin, and digitoxin (Buckalew, 2005). Na^+/K^+-ATPase inhibition induces a plethora of effects including (a) disruption of the Na^+/K^+ gradient and consequent increase in intracellular [Ca^2+] (Grapengiesser et al., 1993), (b) interference with amino acid uptake (Johnson et al., 1986), and (c) the production of reactive oxygen species resulting in oxidative damage to proteins and organelles (Xie et al., 1999). Each of these individual events is either sufficient or necessary to promote autophagy. The latter maintains cell viability by furnishing essential biochemical building blocks via degradation of existing proteins and organelles in lysosomes (Levine and Klionsky, 2004). However, the effect of ouabain, or its cardiotonic congeners, on autophagy has not been examined. The later was explored by measuring rates of degradation of long-lived proteins, the preferential substrate for lysosomal degradation, in DLD-1 cells. […] The latter implies that macroautophagy, the degradation of sequestered material in a vesicular-based fashion, along with other types of autophagy (i.e. chaperone-mediated autophagy and microautophagy) contribute to ouabain-induced proteolysis.
Intracellular Protein Turnover. Rates of protein synthesis were measured in confluent cells as the incorporation of [3H]leucine [10 μCi/ml (1 Ci=37 GBq)] into acid-insoluble material in the presence of an excess (2.8 mM) of unlabeled leucine in the medium (to minimize differences due to alteration of amino acid transport and/or intracellular amino acid pool sizes). 28 To measure degradation of long-lived proteins, confluent cells were labeled with [3H]leucine (2 μCi/ml) for 48 h at 37° C. and then extensively washed and maintained in complete or amino acid depleted medium containing an excess of unlabeled leucine. Aliquots of the medium taken at different times were precipitated with trichloroacetic acid, and proteolysis was calculated as the amount of acid precipitable radioactivity converted into acid soluble at each time (Auteri et al., 1983). Where indicated, 20 mM NH4Cl and 100 μM leupeptine or 10 mM 3-methyladenine were added during the chase to block lysosomal proteolysis or macroautophagy, respectively.

[2] = system: hSMG1 transcription sites; assay: Fluorescence in situ hybridization (FISH) of active hSMG1 transcription sites in DLD-1 cells; assay type: cell-based, human; conditions: ouabain 10 μM for 1 hr, untreated 0.19
Source text: The branched chain DNA assay affords an averaged expression response from a cell population. The magnitude of this response is a function of actin mRNA levels, a baseline that furnishes relative, but not absolute, hSMG1 mRNA quantity. Since actin mRNA levels may be susceptible to influence by these drugs as well, fluorescence in situ hybridization was employed to directly visualize hSMG1 mRNA transcription sites in the DLD-1 cell line. […] Furthermore, these enhanced levels of mRNA synthesis rate and quantity directly translate into higher proteins levels, as exemplified by the ouabain-induced 2.7-fold increase in hSMG1 protein in DLD-1 cells (FIG. 2).
Fluorescence in situ hybridization (FISH). Previously described oligomer probes, each 50 bases in length from four regions of the hSMG1 gene, were designed with OLIGO software from Molecular Biology Insights, Inc., and synthesized on an Applied Biosystems automated DNA/RNA synthesizer (Capodieci et al., 2005). The activated fluorophore cy3 (Amersham) was used to label the probes. DLD-1 cells were seeded onto gelatinized coverslips, incubated as described above for 24 hr, and then treated with ouabain (10 μm) for 1 hr. […] The FISH specimens were imaged and analyzed as previously described (Capodieci et al., 2005).

[3] = system: hSMG1 mRNA; assay: hSMG1 over-expression response to ouabain in other cell lines; assay type: cell-based
[4] = system: hSMG1 protein; assay: hSMG1 protein quantitation by Western blot in DLD-1 cells; assay type: cell-based, human; conditions: 10 μM ouabain for 24 hr
Method: hSMG1 Protein Quantitation. DLD-1 cells were exposed to 10 μM ouabain for 24 hr and subsequently lysed. Total protein concentration, following centrifugation, was determined using the BCA Protein Assay Kit (Pierce). Following electrophoresis, the membrane was divided and the individual halves separately exposed to the SMG1 antibody BL1657 (Bethyl Laboratories) and the actin antibody A5441 (Sigma) and then subsequently incubated with the appropriate horseradish peroxidase conjugated secondary antibodies. The membranes were treated with the Pierce Supersignal West Pico chemiluminescent reagent and quantified.

[5] = system: ATM; assay: ATM mRNA quantity in DLD-1 cells in response to ouabain; assay type: cell-based, human
Source text: (§1) hSMG1 is a member of the PIKK family, which also includes ATM, ATR, mTOR, and DNA-PK (Therien and Blostein, 2000). These large, structurally homologous, proteins have been implicated as participants in the cellular response to various forms of stress.

[6] = system: DNAPK; assay: DNAPK mRNA quantity in DLD-1 cells in response to ouabain; assay type: cell-based, human
Source text: as §1

[7] = system: hSMG1 mRNA; assay: hSMG1 mRNA quantitation (branched DNA assay) in DLD-1 cells exposed to ouabain; assay type: cell-based, human
Method: The QuantiGene® Explore kit (Panomics, Inc.) was used to furnish a direct quantitation of mRNA in a 96 well format. The “housekeeper gene” 13-actin was selected as an intracellular control. Specific oligonucleotide probes for hSMG1, including capture extenders (CE), label extenders (LE) and blocking probes (BL) were designed with the Panomics ProbeDesigner™ software and synthesized. Prior to drug exposure, HeLa cells were incubated for 24 hr in 150 μL Dulbecco's modified Eagle Medium (DMEM) with 10% fetal bovine serum (FBS) and DLD-1 cells were incubated for 24 hr in 150 μL MEM with 1 mM MEM nonessential amino acids, 1 mM sodium pyrurate, 0.15% sodium bicarbonate, and 10% FBS. Cells were then exposed to various concentrations of the drugs for 24 hr and then lysed via incubation in 75 μL lysis buffer (QuantiGene® Explore kit) at 53° C. for 1 hr. Capture of hSMG1 and actin mRNA was conducted according to the manufacturers instructions and quantification performed using a microplate luminometer.

[8] = system: mTOR; assay: mTOR mRNA quantity in DLD-1 cells in response to ouabain; assay type: cell-based, human
Source text: as §1

[9] = system: hSMG1 mRNA; assay: Drug library screen, hSMG1 mRNA quantitation by branched DNA assay in HeLa cells; assay type: cell-based, human
Method: HeLa cells were separately exposed to each drug from the drug library in a multiwell plate format. After 24 h, hSMG mRNA was captured and quantified using a branched DNA assay (Collins et al., 1997). Actin mRNA levels were simultaneously measured from the same cell lysate in order to compensate for differences in viable cell number as a consequence of drug treatment. […] Both agents bind to and inhibit the Na^+/K^+-ATPase (Therien and Blostein, 2000).
Drug Library Screen and hSMG1 message quantitation. The QuantiGene® Explore kit (Panomics, Inc.) was used to furnish a direct quantitation of mRNA in a 96 well format. The “housekeeper gene” […] was selected as an intracellular control. Specific oligonucleotide probes for hSMG1, including capture extenders (CE), label extenders (LE) and blocking probes (BL) were designed with the Panomics ProbeDesigner™ software and synthesized. Prior to drug exposure, HeLa cells were incubated for 24 hr in 150 μL Dulbecco's modified Eagle Medium (DMEM) with 10% fetal bovine serum (FBS) and DLD-1 cells were incubated for 24 hr in 150 μL MEM with 1 mM MEM nonessential amino acids, 1 mM sodium pyrurate, 0.15% sodium bicarbonate, and 10% FBS. Cells were then exposed to various concentrations of the drugs for 24 hr and then lysed via incubation in 75 μL lysis buffer (QuantiGene® Explore kit) at 53° C. for 1 hr. Capture of hSMG1 and actin mRNA was conducted according to the manufacturers instructions and quantification performed using a microplate luminometer.

[10] = system: ATR; assay: ATR mRNA quantity in DLD-1 cells in response to ouabain; assay type: cell-based, human
Source text: as §1

[11] = system: HEK293 cells; assay: Rate of proteolysis in HEK293 cells after hSMG1 RNAi knockdown; assay type: cell-based, human; conditions: RNAi knockdown of hSMG1, lysosomal inhibitor added
Source text: Autophagy is the quintessential cellular response to limited nutrient supplies and/or the presence of damaged cytoplasmic components (Levine and Yuan, 2005). The corresponding ouabain-induced overexpression of hSMG1 may be a biochemical mechanism by which metabolic homeostasis is re-established, either by inhibiting or promoting autophagy. The possible influence of hSMG1 on autophagy was examined via a series of RNAi knockdown experiments. […] Consequently, all knockdown experiments were performed using the 293 cell line. Following RNAi knockdown, cells were either exposed to or deprived of amino acids and the effect on the rate of proteolysis noted. […] Protein degradation is enhanced in RNAi knockdown cells versus their unaltered counterparts (FIG. 3a). […]
Intracellular Protein Turnover. Rates of protein synthesis were measured in confluent cells as the incorporation of [3H]leucine [10 μCi/ml (1 Ci=37 GBq)] into acid-insoluble material in the presence of an excess (2.8 mM) of unlabeled leucine in the medium (to minimize differences due to alteration of amino acid transport and/or intracellular amino acid pool sizes). […] Aliquots of the medium taken at different times were precipitated with trichloroacetic acid, and proteolysis was calculated as the amount of acid precipitable radioactivity converted into acid soluble at each time (Auteri et al., 1983). […]

Q: Which “lysosomal degradation sensitive to 3-methyladenine” value ([1]; ouabain treated, 10 mM 3-methyladenine) does the source give for `Cn1cnc(N)c2ncnc1-2` [3-methyladenine] here?
A: 30.5±3.4%

Q: And the “effect on ouabain-induced increase in protein degradation” value ([1]; ouabain treated)?
A: partially offsets the effect of ouabain

Q: With `C[C@@H]1O[C@@H](O[C@H]2C[C@@H](O)[C@]3(CO)[C@H]4[C@H](O)C[C@]5(C)[C@@H](C6=CC(=O)OC6)CC[C@]5(O)[C@@H]4CC[C@]3(O)C2)[C@H](O)[C@H](O)[C@H]1O` [Ouabain, ouabain] as the molecule, how does the “effect on proteolysis (degradation of long-lived proteins)” value ([1]; ouabain 10 μM, compared with amino acid starvation) read?
A: dramatically enhances proteolysis

Q: And the “fraction of cells displaying active hSMG1 transcription sites” value [2]?
A: 0.63±0.1

Q: What about the hSMG1 over-expression response ([3]; 786-0 renal carcinoma, ouabain 10 μM) of the same molecule?
A: 6.1±0.4 fold

Q: And the hSMG1 over-expression response ([3]; GM02037 wild type fibroblast, ouabain 10 μM)?
A: 3.4±0.1 fold

Q: What about the hSMG1 over-expression response ([3]; HEK 293, ouabain 10 μM) of the same molecule?
A: 3.3±0.2 fold

Q: What about the hSMG1 over-expression response ([3]; PC3 prostate carcinoma, ouabain 10 μM) of the same molecule?
A: 2.7±0.2 fold

Q: What about the hSMG1 over-expression response ([3]; U87 glioblastoma, ouabain 10 μM) of the same molecule?
A: 1.4±0.1 fold

Q: What about the hSMG1 over-expression response ([3]; primary astrocyte, ouabain 10 μM) of the same molecule?
A: 5.4±0.1 fold

Q: What about the “increase in hSMG1 protein” value [4] of the same molecule?
A: 2.7 fold

Q: And the “change in ATM mRNA quantity” value [5]?
A: 1.1±0.1 fold

Q: What about the “change in DNAPK mRNA quantity” value [6] of the same molecule?
A: 0.8±0.1 fold

Q: What about the hSMG1 over-expression response ([7]; DLD-1 adenocarcinoma, ouabain 10 μM) of the same molecule?
A: 4.3±0.1 fold

Q: And the “enhancement in hSMG1 mRNA quantity” value ([7]; DLD-1 cells in response to ouabain)?
A: 4.3±0.1

Q: What about the “hSMG1 Expression relative to untreated cells” value ([7]; DLD-1 cells, ouabain 10 μM alone, mean ± S.D. of three wells) of the same molecule?
A: 4.3 ± 0.1

Q: What about the “change in mTOR mRNA quantity” value [8] of the same molecule?
A: 1.3±0.1 fold

Q: And the “enhancement of hSMG1 expression levels” value [9]?
A: 2 fold

Q: And the “change in ATR mRNA quantity” value [10]?
A: 0.7±0.1 fold

Q: What does the source list for `Cl.N` [ammonium chloride]?
A: effect on ouabain-induced increase in protein degradation ([1]; ouabain treated): completely blocked; effect on protein degradation caused by hSMG1 knockdown [11]: only partly mitigates the effect of hSMG1 knockdown on protein degradation

Q: Which “effect on ouabain-induced increase in protein degradation” value ([1]; ouabain treated) does the source give for `CC(=O)N[C@@H](CC(C)C)C(=O)N[C@@H](CC(C)C)C(=O)N[C@H](C=O)CCCNC(=N)N` [leupeptin] here?
A: completely blocked
